Results from patent US11576987B2, “Compositions and methods of treating melanoma” (UNIVERSITY OF IOWA RESEARCH FOUNDATION, priority 2016, dated 2023).
Structures can show the parent of a compound that is named as a salt.

Tests used:
MCR1 expression = experiment: Flow cytometry analysis of MCR1 expression in malignant melanoma cells; format: cell-based, human; conditions: BRAF^V600E mutant melanoma cell lines (A2058, A375), 3 mmole 4-PBA, 4 h and 24 h
Experimental: FIG. 1: Flowcytometry analysis of MCR1 expression in A375 malignant melanoma cells. A375 cells were treated with either 2 μmole Vemurafenib or 3 mmole 4-PBA for 4 h and 24 h (n=3). The treated and untreated (control) cells were stained with anti-MC1R-phycoerythrin (PE) monoclonal antibody conjugate. Fluorescence intensity was corrected by auto-fluorescence of cells without staining and data were expressed as relative (vs control) fluorescence intensity±SD. Statistical significance was determined by Student's T-test (*P<0.05; **P<0.01; ***P<0.001; ****P<0.0001).
FIG. 2: Flowcytometry analysis of MCR1 expression in A2058 malignant melanoma cells. […] Fluorescence intensity was corrected by auto-fluorescence of cells without staining and data were expressed as relative (vs control) fluorescence intensity±SD. Statistical significance was determined by Student's T-test (*P<0.05; **P<0.01; ***P<0.001; ****P<0.0001).
FIG. 3: Flowcytometry analysis of MCR1 expression in SK-Me13 malignant melanoma cells. […] Fluorescence intensity was corrected by auto-fluorescence of cells without staining and data were expressed as relative (vs control) fluorescence intensity±SD. Statistical significance was determined by Student's T-test (*P<0.05; **P<0.01; ***P<0.001; ****P<0.0001, N. S. non-significant).
FIGS. 11A-11D. […] Fluorescence intensity was corrected by PE-conjugated isotype. […]

[1] = PBA co-administration: kidney and tumor uptake of [203Pb]DOTA-MCR1; format: in vivo, mice; conditions: PBA 120 mg/kg co-administered i.v. or i.p., 2 h p.i.
Experimental: FIGS. 14A-14B. […] Results are ID %/g tissue±SD; **P<0.01; ****P<0.0001. (B Right) Pre-administered of PBA (i.p. 60 mg/kg) and BRAFi (vemurafenib; p.o. 5 mg/kg) 3 h prior to tail vein injection of 13 MBq [^203Pb]DOTA-MCR1 in human (A2058) melanoma-bearing athymic nu/nu mice (SPECT image 1 h p.i.); (B Left) An identical animal was administered an identical dose of [^203Pb]DOTA-MCR1 without PBA/BRAFi (saline). Images were identically processed and analyzed using Inveon Workplace software (identical contrast, intensity, etc.).
PBA relieves ER-stress through nonspecific binding to misfolded proteins in the ER. Thus, it was hypothesized that co-injection could inhibit peptide uptake in kidneys in the same fashion as amino acid co-infusions used clinically. This is reasonable because the megalin-cubulin system for reuptake and recirculation of nutrients in the proximal and distal tubules involves nonspecific binding and endocytosis of proteins, amino acids, and nutrients. results support the hypothesis that co-injection of PBA can serve to reduce kidney accumulation of radiopeptides in the kidneys (FIGS. 14A-B).

O=C(O)CCCc1ccccc1 [PBA, 4-phenylbutyric acid, sodium salt]
time dependency of MCR1 expression (MCR1 expression): significant (time dependent) increase in MCR1 expression
kidney uptake of [203Pb]DOTA-MCR1 [1]: significantly blocked kidney uptake
tumor accumulation of [203Pb]DOTA-MCR1 [1]: did not affect tumor accumulation
